The values below come from patent US20080145433A1 (GILEAD COLORADO, INC., priority 2006, published 2008).

For data set [1], the target named is T1, ETB (Homo sapiens, UniProt P24530).
T1 sequence (P24530 27-442): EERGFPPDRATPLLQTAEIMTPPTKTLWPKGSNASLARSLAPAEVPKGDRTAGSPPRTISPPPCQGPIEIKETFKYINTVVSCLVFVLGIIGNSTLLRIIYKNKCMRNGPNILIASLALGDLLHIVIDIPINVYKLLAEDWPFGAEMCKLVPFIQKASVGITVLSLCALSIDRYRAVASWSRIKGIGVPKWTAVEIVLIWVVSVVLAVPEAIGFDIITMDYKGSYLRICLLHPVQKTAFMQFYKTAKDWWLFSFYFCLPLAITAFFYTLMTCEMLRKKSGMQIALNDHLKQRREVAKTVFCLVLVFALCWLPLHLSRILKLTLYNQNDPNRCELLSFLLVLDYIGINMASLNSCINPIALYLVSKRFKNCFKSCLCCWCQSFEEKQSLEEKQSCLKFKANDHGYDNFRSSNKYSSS
To be noted: Riechers et al (1996); read-out: affinity for ETB (KiB); cited from earlier work.

In data set [2] the target is T2, ETA (Homo sapiens, UniProt P25101).
T2 sequence (P25101 21-427): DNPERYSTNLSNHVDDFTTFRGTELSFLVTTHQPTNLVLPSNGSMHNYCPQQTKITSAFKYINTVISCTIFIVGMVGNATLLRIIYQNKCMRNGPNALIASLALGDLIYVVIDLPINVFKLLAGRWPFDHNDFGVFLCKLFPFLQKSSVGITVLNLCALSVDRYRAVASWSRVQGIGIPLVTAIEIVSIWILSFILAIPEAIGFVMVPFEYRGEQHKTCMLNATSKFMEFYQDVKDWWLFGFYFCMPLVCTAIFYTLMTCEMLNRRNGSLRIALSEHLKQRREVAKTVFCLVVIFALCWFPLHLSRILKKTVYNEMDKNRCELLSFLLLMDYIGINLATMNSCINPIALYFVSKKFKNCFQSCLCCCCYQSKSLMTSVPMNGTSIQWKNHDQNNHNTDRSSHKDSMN
In words: ETA receptor affinity reported by Riechers et al (1996). The settings on record: calculated from Riechers et al (1996) data. The format is binding.

For data set [3], the target named is T2, ETA. To be noted: Riechers et al (1996); read-out: affinity for ETA (KiA); cited from earlier work.
The conditions of data set [4]: published values, Boss et al. (2001); cited from earlier work.
Data set [5] concerns the target T1, ETB. Briefly: 125[I]-endothelin-1 receptor binding cold ligand competition curves in human myocardial membranes (ETB). Also noted: human myocardial membranes prepared from failing and non-failing left ventricles; from tissue; host or cells: human left ventricular myocardium (failing and non-failing), membranes. To be noted: 10 μM Gpp(NH)p, 4-hour incubation, steady-state binding, mean of 8 assays.

Data set [6] in a line: PK of darusentan tablets, single oral dose, congestive heart failure patients (Example 3). Format: in vivo, human. The settings on record: CHF patients, single oral doses 10-300 mg. The text has this: This was a multi-center, prospective, uncontrolled clinical trial. […] At least 12 patients received each dose, in addition to their normal medication for CHF.
Arithmetic means and standard deviations of Cmax, Tmax and AUC, based on individual values of these parameters calculated by standard PK methods, are presented in Table 3. As this was a single dose study, Cmin was not determined.

Data set [7] deals with T2, ETA. Briefly: 125[I]-endothelin-1 receptor binding cold ligand competition curves in human myocardial membranes (ETA). Also noted: human myocardial membranes prepared from failing and non-failing left ventricles; from tissue; host or cells: human left ventricular myocardium (failing and non-failing), membranes. The settings on record: mean of 8 assays.
The target of data set [8] is T2, ETA. The settings on record: Lip (2001); cited from earlier work.

Where two headings read alike, the source gives them in different places.

As for `COc1cc(OC)nc(OC(C(=O)O)C(OC)(c2ccccc2)c2ccccc2)n1` (racemic) [racemate, 2-(4,6-dimethoxypyrimidin-2-yloxy)-3-methoxy-3,3-diphenylpropionic acid], the Ki at ETB [1] was 371 nM; on ETA [3], 6 nM. Further, at ETA [2], the “ETA/ETB selectivity (KiB/KiA)” value is “about 62”.
Consider `COc1cc(OC)nc(O[C@H](C(=O)O)C(OC)(c2ccccc2)c2ccccc2)n1` [darusentan, (+)-(S)-2-(4,6-dimethoxypyrimidin-2-yloxy)-3-methoxy-3,3-diphenylpropionic acid], for which, in data set [4], the T1/2 is 10 to 12 h. Moreover, the Ki is 216 ± 85 nM on ETB [5]; 3 nM on ETA [3]; 0.178 ± 0.055 nM on ETA [7] (10 μM Gpp(NH)p, 4-hour incubation, steady-state binding). The “Pharmacokinetics: dose dependence of Cmax and AUC” value in data set [6] was “appeared to be linear”. Moreover, at ETA [7], the “ETA selectivity (fold)” value is 1181 ± 148 fold. In addition, on ETA [8], the ETA/ETB selectivity entry is given as “about 160”.
Turning to `COc1cc(OC)nc(O[C@@H](C(=O)O)C(OC)(c2ccccc2)c2ccccc2)n1` [less potent enantiomer], on ETA [3], the Ki was 150 nM.
